Data reported in US20210403864A1, “METHODS AND COMPOSITIONS FOR TREATING ACTIVATED G-ALPHA Q MUTANT CANCERS OR MELANOCYTIC MALIGNANCIES” (Memorial Sloan Kettering Cancer Center, priority 2018, published 2021).

What was measured:
[1] = tested on: PKC and MAPK signaling (pRASGRP3, p-CRAF, p-MEK1/2, p-ERK1/2), cyclin D1 protein; assay: Western blot of downstream UVM signaling in UVM cells and A375 cells; format: cell-based, human; details: for inhibition of PKC and MAPK signaling and cyclin D1 protein / inhibition of MAPK targets (p-CRAF, p-MEK1/2, p-ERK1/2) / change in pRASGRP3: 500 nM YM; for inhibition of MAPK targets (p-CRAF, p-MEK1/2, p-ERK1/2): 2 hours
Procedure: Immunoblotting. Lysates were harvested using SDS lysis buffer (50 mM Tris-HCL, pH 6.8, 1 mM EDTA, 150 mM NaCl, 1% SDS, […]) supplemented with fresh proteinase and phosphatase inhibitors (PhosSTOP, Roche, Basel, Switzerland; Complete EDTA-Free, Roche, Basel, Switzerland) and 1% PMSF (Sigma-Aldrich, St. Louis, Mo.). Lysates were incubated on ice for 30 minutes, sonicated for 15 minutes, and then centrifuged at max speed for 10 minutes at 4° C. Protein levels were quantified using BCA protein assay (Thermo Scientific, Waltham, Mass.). NuPAGE LDS Sample Buffer (4×) was added to a final concentration of 1×. Samples were run on NuPAGE Novex 4-12% Bis-Tris protein gels (Life Technologies, Carlsbad, Calif.), transferred electrophoretically to 0.45 μm PVDF membranes (Immobilon, EMD Millipore, Burlington, Mass.), and then blocked with StartingBlock blocking buffer (Thermo Scientific, Waltham, Mass.) for 1 hour at room temperature. Primary antibodies were incubated at 4° C. overnight in StartingBlock buffer at 1:1,000 dilution, unless noted otherwise. Primary Antibodies used in the experiments described herein are provided below:
Given the unexpected sensitivity of GNAQ^Q209L mutation to YM in the melan-a system, the effect of YM on three human UVM cell lines that harbored the GNAQ^Q209L/P mutation was evaluated, using the BRAF^V600E mutant A375 cutaneous melanoma cell line as a negative control.

[2] = tested on: human Mel202 uveal melanoma xenografts; assay: In vivo anti-tumor activity, xenografts in SCID mice; details: MEK162 10 mg/kg P.O. b.i.d.; YM-254890 2.5 mg/kg i.p. q.d.; over 20 days; single agents vs vehicle, combination vs vehicle and single agents
Procedure: To evaluate the effect of YM-254890 and binimetinib (MEK162) in vivo, Mel202 uveal melanoma xenografts were established in SCID mice, and the mice were treated with vehicle only, 10 mg/kg MEK162 (P.O., b.i.d.), YM-254890 (2.5 mg/kg i.p., q.d.) or a combination of MEK162 and YM-254890. Tumor volumes were measured over 20 days.

YM-254890
inhibition of PKC and MAPK signaling and cyclin D1 protein ([1]; A375 cells (negative control)): not in A375 cells | p-ERK1/2 level ([1]; Mel202 cells, 24 hours): rebound | inhibition of pRASGRP3 ([1]; Mel202 cells, earlier time points, in contrast to Mel270 and OMM1.3): greater inhibition | inhibition of MAPK targets ([1]; Mel202 cells, in contrast to Mel270 and OMM1.3): decreased inhibition | inhibition of MAPK targets (p-CRAF, p-MEK1/2, p-ERK1/2) ([1]; Mel270 cells): significant inhibition | change in pRASGRP3 ([1]; Mel270 cells, 24 hours): small decreases | inhibition of MAPK targets (p-CRAF, p-MEK1/2, p-ERK1/2) ([1]; OMM1.3 cells): significant inhibition | change in pRASGRP3 ([1]; OMM1.3 cells, 24 hours): small decreases | inhibition of PKC and MAPK signaling and cyclin D1 protein ([1]; UVM cells): inhibited | tumor volume [2]: moderate reduction
